According to US20220354957A1, “PEPTIDES TARGETING MACROPHAGES, AND CONJUGATES, COMPOSITIONS, AND USES THEREOF” (Twinpig Biolab, Inc., priority 2021, published 2022):

Tests used:
[1] = Cell viability test (CCK-8) of dKLA-conjugated alanine-substituted peptides; type: cell-based, human
Procedure: (§1) THP-1 monocytes were differentiated into macrophages (M0) by 24 h incubation with 100 nM phorbol 12-myristate 13-acetate (PMA, Sigma) followed by 24 h incubation in RPMI medium (Invitrogen). Macrophages were polarized in M1 macrophages (M1) by incubation with 20 ng/ml of IFN-γ (Prospec) and 100ng/m1 of LPS (Sigma). Macrophage M2 polarization(M2) was obtained by incubation with 20 ng/ml of interleukin (IL) 4 (Prospec) and 20 ng/ml of interleukin 13 (Pro spec).
(§2) Polarized cells were treated with 1.5 μM MpepK, A12K, A14K, A17K, A18K, A22K, A25K or A26K peptides for 1 hour and further incubated in RPMI1640 growth medium for 24 hours. Cell viability was analyzed using the CCK-8 assay: CCK-8 reagent (Enzo Life Sciences) was added to each well; incubation was continued for 2 hours, and absorbance was measured at 450 nm with a microplate reader (Molecular Devices).
(§3) THP-1 cells (1×10^4 cells/well) were differentiated into macrophages with 100 nM PMA (MO) for 24 h and polarized into classical M1 macrophages by treatment of IFN-γ (20 ng/ml) and LPS (100 ng/ml) and LPS-stimulated macrophages (LPS-M1) were induced by LPS (1 m/ml) treatment for 24h. Cells were treated with 1.5 μM of A26K for 1 hour and further incubated in RPMI1640 growth medium for 24 hours. Cell viability was analyzed using the CCK-8 assay. CCK-8 reagent was added to each well and incubated for 1.5-2 hours. Absorbance was measured at 450 nm with a microplate reader.

[2] = test system: M1 macrophages; experiment: as above; type: cell-based, human; conditions: 1.5 μM, 1 hour then 24 hours, CCK-8, compared to control M1 macrophage
Procedure: as §1, §2, §3

[3] = Cytotoxicity in in vitro sepsis model (CCK-8); type: cell-based, human; conditions: compared to control, read-out: inhibition (cytotoxic effect) in LPS-M1 macrophages
Procedure: as §3

[4] = test system: LPS-M1 macrophages; experiment: Expression of pro-inflammatory genes in in vitro sepsis model (real-time quantitative PCR); type: cell-based, human; conditions: 1.5 μM for 1 h, compared to LPS-M1 macrophages
Procedure: THP-1 cells (2×10^5 cells/well) were differentiated into macrophages with 100 nM PMA (MO) for 24h and polarized into classical M1 macrophages by treatment of IFN-γ (20 ng/ml) and LPS (100 ng/ml) and LPS-M1 macrophages were induced by LPS (1 m/ml) treatment for 2 h. Polarized cells were treated with 1.5 μM of A26K for 1 hour and further incubated in RPMI1640 growth medium for 24 hours. Expression levels of pro-inflammatory genes (IL-8, TNF-α, NF-kB, IL-1(3 and CXCL10) were quantified by real-time quantitative PCR.

[5] = Cytotoxicity assay (CCK-8 cell viability); type: cell-based, human; conditions: THP-1-derived M2 macrophages, CCK-8
Procedure: THP-1 cells were differentiated into macrophages by 24 h incubation with 100 nM PMA and polarized in M2 macrophages by incubation with 20 ng/ml of IL-4 and 20 ng/ml of IL-13 for 72 h. Polarized cells were treated with increasing concentrations of TAMpep and fragments of TAMpep (0.05-20 μM) for 24 h. Cell viability was analyzed using the CCK-8 assay: CCK-8 reagent (Enzo Life Sciences) was added to each well; incubation was continued for 2 hours, and absorbance was measured at 450 nm with a microplate reader (Molecular Devices).

[6] = test system: mouse RBC; experiment: Hemolytic activity assay; type: cell-based; conditions: 0.1-50 μM, 37° C., 1 h, read-out: hemolysis IC50
Procedure: Mouse blood samples were collected in tubes containing heparin as an anticoagulant and stored at 4 ° C. before use. Whole blood sample were centrifuged at 1,500×g for 5 min and the resulting plasma fraction was removed from the samples. The pellets were washed with an equal volume of saline, mixing by inversion. The centrifuging and washing steps were repeated 5 times. Red blood cells were counted by a hemocytometer and adjusted to […]. Red blood cells were then incubated at 37° C. for 1 h in 1% Triton X-100 (positive control), in PBS (blank), or with increasing concentrations of TAMpep and Mpep (0.1-50 μM) were evaluated. The samples were then centrifuged at 10,000 g for 5 min, the supernatant was separated from the pellet, and its absorbance measured at 570 nm. The relative optical density compared to that of the suspension treated with 1% Triton X-100 was defined as the percentage of hemolysis.

[7] = Cytotoxicity in human melanoma cells; type: cell-based; conditions: Sk-Mel-28 cells
[8] = test system: murine melanoma cells (B16F10 cell line); experiment: Mouse model of melanoma (subcutaneous B16F10); type: in vivo; conditions: B16F10 melanoma model, vs PBS group
From the text: (§4) BALB/c and C57BL/6 (B6) wild-type mice were purchased from DBL. For the subcutaneous tumor model of melanoma and prostate cancer, CT26 (3×10^5 cells/mouse), B16F10 (1×10^6 cells/mouse) and TRAMP-C2 cells (1×10^6 cells/mouse) were mixed with Matrigel matrix (Corning) and inoculated subcutaneously into the right flank of the mice, and 4T1 (1×10^5 cells/mouse) cells mixed with Matrigel matrix and inoculated into a 4th mammary fat pad of the mice. TAMpepK, and MpepK peptides (200 nmol/kg) were injected intraperitoneally every 3 days, beginning at day 7 after tumor inoculation, and tumor volume was measured by electronic caliper. All tumor tissues were harvested after the end of the study and tumor weight was measured by an electronic balance.

[9] = test system: TRAMP-C2 cells; experiment: Mouse model of prostate cancer (subcutaneous TRAMP-C2); type: in vivo; conditions: TRAMP-C2 prostate cancer model
From the text: as §4
Cells were harvested and lysed in PRO-PREP protein extraction solution (iNtRON, Bio Inc, Sungnam, Korea). Protein concentrations were measured with a Bradford Protein Assay Reagent kit (Bio-Rad, Richmond, CA, USA). Proteins were fractionated by 10% SDS-polyacrylamide gels electrophoresis (PAGE), and transferred onto polyvinylidene difluoride (PVDF) membranes. These were incubated with anti-arginase 1, anti-CD206, anti-caspase 3, anti-E-cadherin, anti-fibronectin, anti-PCNA, anti-TGF-β, anti-MMP9, and anti-β-actin Ab as primary antibodies. Goat anti-rabbit horseradish peroxidase-conjugated IgG or goat anti-mouse horseradish peroxidase-conjugated IgG (Abcam, Cambridge, Mass., USA) served as secondary antibodies. Protein bands were detected with a chemiluminescence reagent kit (SurModics).

CC[C@H](C)[C@H](NC(=O)[C@H](CC(C)C)NC(=O)[C@H](C)NC(=O)[C@@H]1CCCN1C(=O)[C@H](CC(C)C)NC(=O)CNC(=O)[C@@H](NC(=O)[C@@H](NC(=O)[C@H](CC(C)C)NC(=O)[C@@H](NC(C)=O)C(C)C)[C@@H](C)O)[C@@H](C)O)C(=O)N[C@@H](CO)C(=O)N[C@@H](Cc1c[nH]c2ccccc12)C(=O)N[C@H](C(=O)N[C@@H](CCCCN)C(=O)N[C@@H](CCCNC(=N)N)C(=O)N[C@@H](CCCCN)C(=O)N[C@@H](CCCNC(=N)N)C(=O)N[C@@H](CCC(N)=O)C(=O)N[C@@H](C)C(=O)NCC(=O)NCC(=O)NCC(=O)NCC(=O)N[C@@H](CO)C(=O)N[C@H](CCCCN)C(=O)N[C@H](CC(C)C)C(=O)N[C@H](C)C(=O)N[C@H](CCCCN)C(=O)N[C@H](CC(C)C)C(=O)N[C@H](C)C(=O)N[C@H](CCCCN)C(=O)N[C@H](CCCCN)C(=O)N[C@H](CC(C)C)C(=O)N[C@H](C)C(=O)N[C@H](CCCCN)C(=O)N[C@H](CC(C)C)C(=O)N[C@H](C)C(=O)N[C@H](CCCCN)C(=O)O)[C@@H](C)CC [A26K]
cytotoxicity ([1]; 1.5 μM, compared to control, read-out: inhibition of viability in M1 macrophages): 53%
IC50 ([1]; 0.01-10 μM, read-out: cytotoxicity IC50 in M1 macrophages): 1190 nM
cytotoxic effect in M1 macrophages [2]: great significant selective cytotoxic effect
inhibition at 1.5 µM [3]: 37%
expression levels of IL8, TNF-α, IL-1β, NF-kB and CXCL10 enhanced by LPS stimulation [4]: significantly inhibited

CC[C@H](C)[C@H](NC(=O)CNC(C)=O)C(=O)NCC(=O)N[C@@H](C)C(=O)N[C@H](C(=O)N[C@@H](CC(C)C)C(=O)N[C@@H](CCCCN)C(=O)N[C@H](C(=O)N[C@@H](CC(C)C)C(=O)N[C@H](C(=O)N[C@H](C(=O)NCC(=O)N[C@@H](CC(C)C)C(=O)N1CCC[C@H]1C(=O)N[C@@H](C)C(=O)N[C@@H](CC(C)C)C(=O)N[C@H](C(=O)N[C@@H](CO)C(=O)N[C@@H](Cc1c[nH]c2ccccc12)C(=O)N[C@H](C(=O)N[C@@H](CCCCN)C(=O)N[C@@H](CCCNC(=N)N)C(=O)N[C@@H](CCCCN)C(=O)N[C@@H](CCCNC(=N)N)C(=O)N[C@@H](CCC(N)=O)C(=O)N[C@@H](CCC(N)=O)C(=O)NCC(=O)NCC(=O)NCC(=O)NCC(=O)N[C@@H](CO)C(=O)N[C@H](CCCCN)C(=O)N[C@H](CC(C)C)C(=O)N[C@H](C)C(=O)N[C@H](CCCCN)C(=O)N[C@H](CC(C)C)C(=O)N[C@H](C)C(=O)N[C@H](CCCCN)C(=O)N[C@H](CCCCN)C(=O)N[C@H](CC(C)C)C(=O)N[C@H](C)C(=O)N[C@H](CCCCN)C(=O)N[C@H](CC(C)C)C(=O)N[C@H](C)C(=O)N[C@H](CCCCN)C(=O)O)[C@@H](C)CC)[C@@H](C)CC)[C@@H](C)O)[C@@H](C)O)C(C)C)C(C)C [TAMpepK]
IC50 [5]: 1060 nM
IC50 [6]: 1120 nM
IC50 [7]: 3580 nM
body weight of mice [8]: not significantly changed
body weight of mice [9]: did not significantly change
